Data set [1] relates to IL-8 mRNA expression in NHBE cells. Briefly: IL-8 mRNA expression by real-time quantitative PCR. Format: cell-based, human. The settings on record: 4 h. Here is the method:
For the relative quantification of IL-8 mRNA expression, the expression of glyceraldehyde-3-phosphate dehydrogenase (GAPDH) was served as an internal control. EvaGreen was used as a DNA intercalator dye to monitor amplified DNA quantification, and real-time quantitative PCR curves were analyzed by the CFX Manager™ software (Bio-Rad) in order to obtain threshold cycle (Ct) values for each sample. Quantification was based on a standard curve. Appropriate IL-8 and GADPH forward and reverse primers were used.

Data set [2] concerns IL-8 secretion from NHBE cells. Briefly: LPS-induced IL-8 secretion from NHBE cells in culture (ELISA). Type of data set: cell-based, human. How it is done: NHBE cells (Lonza Walkersville, Walkersville, Md.) were plated at 3,500 cells/cm^2 in culture dishes in bronchial epithelial cell growth medium (BEGM) supplemented with the SingleQuot® kit (Lonza) without antibiotics and cultured at 37° C. in a 5% CO2 incubator. We used endotoxin-free media (<0.005 endotoxin units/ml) and second-passage cells for all experiments. Cells were grown to confluence for 6 days. Cultures without antibiotics were then transferred to 6-well or 35 mm dishes coated with type 1 rat-tail collagen and seeded at 3,500 cells/cm^2. The medium was changed every 24 h. To avoid influence of growth factors on cell signaling and IL-8 secretion, cells were cultured in supplement-free bronchial epithelial cell basal medium (BEBM) for 24 h before stimulation. We evaluated cell response at the time of cell confluence rather than normalize to the relative number of cells because cell maturation could affect cell signaling and cytokine secretion, and at confluence, all cells are at similar growth stages. Culture supernatants were collected and centrifuged for 5 min at 200×g and stored at −20° C. until assayed. IL-8 was measured by ELISA (Beckman Coulter, Inc., Brea, Calif.) according to the manufacturer's instructions. Concentrations in each sample were obtained by interpolation from standard curves, and calculated as the mean of the results at the sample dilution. […] We chose to assess cell response at the time of cell confluence rather than normalize to the relative number of cells, because cell maturation could potentially affect cell signaling and cytokine secretion, and at confluence, all cells are at similar growth stages.
(In general: An ELISA detects its analyte on a solid surface through an enzyme-linked reagent.)

Data set [3] relates to ERK1/2 phosphorylation in NHBE cells. The data set is described as follows: LPS-induced phosphorylation of MAPKs (Western blotting). Type of data set: cell-based, human. Background: Immunoblotting shows a protein as a band on a membrane.
Description: Membranes were stripped with a stripping buffer (100 mM 2-mercaptoethanol, 2% SDS, and 62.5 mM Tris/HCl pH 6.7) for 30 min at 30° C. The blots were reprobed with anti-p44/42 MAPK, anti-p38 MAPK, or anti-SAPK/JNK antibody (diluted 1:1000 for each), followed by anti-rabbit-IgG HRP secondary antibody (diluted 1:2000). To correct small differences in loading for NF-κB p65, blots were stripped, and reprobed with anti-human β-actin antibody (diluted 1:5000), followed by anti-mouse IgG HRP secondary antibody (diluted 1:5000). Western blot images were scanned and analyzed on NIH Image J software (18).
A short description of data set [4]: Ferret activity, appetite and weight after tracheal LPS with and without dapsone. Format: in vivo. To be noted: LPS 5 days, 5-day dapsone treatment (oral or nebulized) vs vehicle. How it is done:
(§1) Twenty adult male ferrets (weight, 1.3 to 2.0 kg) were obtained from Marshall Farms (Rose, N.Y.). Ferrets were anesthetized with 40 mg/kg ketamine and 5 mg/kg xylazine, and exposed to endotoxin for 30 min once daily for 5 days by incubating with a 3.0 uncuffed endotracheal tube (ETT) coated with 10 mg of LPS mixed in 300 μl water soluble K-Y jelly (Johnson & Johnson, New Brunswick, N.J.) (Abanses et al., 2009). As controls, K-Y jelly without LPS was used in two ferrets.
This is equivalent to the oral dose used to treat persons with skin disease. For aerosol inhalation, ferrets were shallowly intubated with ETT, which was placed 1 cm below the larynx. […] Ferrets (body weight 1.5 kg) have 0.3-0.4 ml total lung lining fluid volume. Therefore, the dose delivered to the lung, is estimated to be 0.1 to 1.0 μg in this system given reported nebulization efficiency.

For data set [5] the following is noted: in vivo; cited from earlier work.
Data set [6] has as its system LPS-inflamed ferret trachea. The data set is described as follows: Intraepithelial neutrophil accumulation in LPS-inflamed ferret trachea. Format: in vivo. The settings on record: 5 days.
Data set [7] has as its system IL-13 induced goblet cell hyperplasia in NHBE cells. Briefly: In vitro model of IL-13 induced goblet cell hyperplasia, ALI-conditioned NHBE cells. Type of data set: cell-based, human. An excerpt:
Globlet cells are columnar epithelial cells whose sole function is to secrete mucin, which dissolves in water to form mucus. […] An in vitro model of goblet cell hyperplasia was developed using normal human bronchial epithelial (NHBE) cells cultured under air-liquid interface (ALI) conditions.

Data set [8] concerns NF-κB p65 phosphorylation in NHBE cells. The data set is described as follows: LPS-induced phosphorylation of NF-κB p65 (Western blotting). Type of data set: cell-based, human. Here is the method: After stimulation, the plated cells were washed with cold PBS, and then lysed on ice in a modified radio immunoprecipitation buffer (1% Nonidet P-40, 1% sodium deoxycholate, 150 mM NaCl, 10 mM Tris pH 7.5, 5 mM sodium pyrophosphate, 1 mM NaVO4, 5 mM NaF, 1 μg/ml aprotinin, 1 μg/ml leupeptin, and 0.1 mM PMSF) for 15 min and then scraped from the dishes. DNA was sheared by passing the lysate though a 27-gauge needle, and insoluble material was removed by centrifugation at 20,000 g for 15 min at 4° C. The protein concentration of the resulting supernatant was quantified by the DC protein assay (Bio-Rad, Hercules, Calif.). Equal amounts of protein extracts were loaded on a 12% SDS-PAGE mini gel and transferred to a nitrocellulose membrane (Bio-Rad). Membranes were blocked with blocking buffer (150 mM NaCl, 20 mM Tris, and 0.1% Tween 20, pH 7.6) containing 5% nonfat dry milk at 4° C. overnight. Subsequently, membranes were rinsed and incubated with the primary antibody: phospho (p)-p44/42 MAPK (Thr202/Tyr204) (diluted 1:2000), p-p38 MAPK (Thr180/Tyr182) (diluted 1:1000), p-SAPK/JNK (Thr183/Tyr185) (diluted 1:1000), or p-NF-κB p65 rabbit polyclonal IgG (diluted 1:1000) (Cell Signaling Technology), for 2 h at room temperature. The membranes were then incubated at room temperature for 1 h with the anti-rabbit IgG HRP secondary antibody (diluted 1:2000). Subsequently, the blots membranes were developed with LumiGLO chemiluminescent substrate peroxide (Cell Signaling Technology).
Membranes were stripped with a stripping buffer (100 mM 2-mercaptoethanol, 2% SDS, and 62.5 mM Tris/HCl pH 6.7) for 30 min at 30° C. The blots were reprobed with anti-p44/42 MAPK, anti-p38 MAPK, or anti-SAPK/JNK antibody (diluted 1:1000 for each), followed by anti-rabbit-IgG HRP secondary antibody (diluted 1:2000). […] Western blot images were scanned and analyzed on NIH Image J software (18).
The […] phosphorylation of NF-κB p65 was measured by Western blotting. The band intensity was calculated with NIH Image J software.

Data set [9] relates to LPS-inflamed ferret trachea. Briefly: Mucociliary transport (MCT) on excised tracheal segments. Type of data set: in vivo. The settings on record: 5 days. How it is done: as §1
This is equivalent to the oral dose used to treat persons with skin disease. For aerosol inhalation, ferrets were shallowly intubated with ETT, which was placed 1 cm below the larynx. […] Ferrets (body weight 1.5 kg) have 0.3-0.4 ml total lung lining fluid volume. Therefore, the dose delivered to the lung, is estimated to be 0.1 to 1.0 μg in this system given reported nebulization efficiency. […]
A tracheal segment was placed on a piece of gauze saturated with Ringer's solution in a chamber in which the relative humidity was maintained at 95 to 100% and the temperature was maintained at 22° C. to 24° C. MCT was measured by focusing a tracheal segment under a microscope with gradicule (grid line) eyepiece and recording the transport time of the leading edge of very fine shavings of plastic that were placed on the tracheal epithelium. […]

Data set [10] relates to steroid-dependent asthma patients. To be noted: orally administered dapsone; cited from earlier work.
Data set [11] concerns apical and basolateral IL-8 secretion from ALI-conditioned NHBE cells. Briefly: IL-8 secretion from NHBE cells cultured under air-liquid interface (ALI) condition. Format: cell-based, human. To be noted: dapsone 1 μg/ml in basolateral medium, LPS 10 μg/ml 24 h. How it is done: For NHBE cell differentiation, cells were plated at 2.0×10^5 cells/cm^2 onto polycarbonate inserts of 6.5-mm diameter, 0.4-μm pore size and 10-μm thickness (Costar Transwell Clear, Cambridge, Mass., USA) coated with type 1 rat-tail collagen, and cultured with serum-free DMEM/F12 medium containing ITS-A (1.0%; Invitrogen Co., Carlsbad, Calif.), epidermal growth factor (EGF) (recombinant human EGF, 0.5 ng/ml; Invitrogen Co.), triiodothyronine (10 ng/ml; […] Sigma-Aldrich), bovine serum albumin (2.0 μg/ml; Sigma-Aldrich) and bovine pituitary extract (30 μg/ml; Invitrogen Co.). After achieving confluence, the apical medium was removed, and cells were cultured with an air-liquid-interface (ALI) method. The culture medium was changed every 48 h, and cells were maintained at 37° C. in a 5% CO2, for 10-14 days. Culture supernatants were collected and centrifuged for 5 min at 200×g and stored at −20° C. until assayed. IL-8 was measured by ELISA (Beckman Coulter, Inc., Brea, Calif.) according to the manufacturer's instructions. Concentrations in each sample were obtained by interpolation from standard curves, and calculated as the mean of the results at the sample dilution. […] NHBE cells were stimulated with LPS from the apical (AP-LPS) or basolateral side (BL-LPS) for 24 h, and IL-8 secretion levels in both chambers were measured. […]

The test system of a further data set is IL-8 release from NHEK. The settings on record: cited from earlier work.

The values that follow come from patent US20150040894A1 (VIRGINIA COMMONWEALTH UNIVERSITY, priority 2010, published 2015).

Regarding `C[C@@H]1C[C@H]2[C@@H]3CCC4=CC(=O)C=C[C@]4(C)[C@@]3(F)[C@@H](O)C[C@]2(C)[C@@]1(O)C(=O)CO` [DEX, dexamethasone], the “decrease of basal IL-8 mRNA level” value in data set [1] (DEX 0.1 μg/ml, P<0.05) is approximately 40%.

For the molecule `COc1cccc(-c2cc(=O)c3ccccc3o2)c1N` [PD98059, 2′-amino-3′-methoxyflavone], in [2] (PD98059 20 μM added 1 h before LPS), the “LPS-induced IL-8 secretion” value is recorded as “did not inhibit”. Also, the “LPS-induced ERK1/2 phosphorylation” value in [3] (PD98059 20 μM added 1 h before LPS 10 μg/ml, 4 h) is on record as “abolished”.

Consider `Nc1ccc(S(=O)(=O)c2ccc(N)cc2)cc1` [dapsone, 4,4′-diaminodiphenyl sulfone], for which, in data set [4], the “ferret activity or appetite” value was “no measurable effect” and the “ferret weight over 9 days” value is recorded as “no difference”. Also, the therapeutic serum levels in data set [5] was 0.5 to 5 µg/mL. In addition, the “neutrophil accumulation in tracheal epithelium” value in [6] (nebulized dapsone 0.5 mg/ml, 15 min once daily, P<0.05) was “significantly inhibited”. For the same molecule, in [6] (oral dapsone 2 mg/kg daily, P=0.3), the “neutrophil recruitment in tracheal epithelium” value is recorded as “tended to inhibit”. Also, the “growth of ALI-conditioned NHBE cells” value in data set [7] (dapsone 3 μg/ml, no IL-13) was “no measurable effect”. Further, in [7] (dapsone 10 μg/ml, vs control cell cultures), the “amount and extent of IL-13 induced goblet cell hyperplasia” value is “decreased”. For the same molecule, the “basal IL-8 secretion” value in data set [2] (dapsone 1 μg/ml, 48 and 72 h, no LPS) was “did not affect”. The “LPS-induced IL-8 secretion over time” value in data set [2] (dapsone 1 μg/ml, LPS 10 μg/ml, up to 72 h) was “significantly and persistently decreased”. Further, the “LPS-induced IL-8 secretion” value in data set [2] (dapsone 0.3, 1 or 10 μg/ml, LPS 10 μg/ml, 24 h, P<0.01 for each) is “suppressed”. Besides, the “basal IL-8 mRNA level” value in data set [1] (dapsone 1 μg/ml) was “did not influence”. The “LPS-induced IL-8 mRNA over expression” value in [1] (dapsone 1 and 10 μg/ml, LPS 10 μg/ml, P<0.05 for each) is “significantly inhibited”. In addition, the “NF-κB p65 activation” value in data set [8] (dapsone 0.3 μg/mL) is given as “did not significantly inhibit”. Also, the “LPS-induced NF-κB p65 phosphorylation” value in [8] (dapsone 1 μg/ml, LPS 10 μg/ml, 15 min to 2 h, to the control level) is “significantly inhibited”. Besides, the “dose dependence of inhibition of NF-κB p65 phosphorylation” value in [8] (dapsone 0.3, 1 and 10 μg/ml (P=0.16 for 0.3; P<0.01 for 1 and 10 μg/ml)) is listed as “dose-dependent”. For the same molecule, the “LPS-induced ERK1/2 phosphorylation at 1 h” value in data set [3] (dapsone 1 μg/ml, LPS 10 μg/ml, 1 h, P<0.05) was “inhibited”. In data set [3] (dapsone 1 μg/ml, LPS 10 μg/ml, after 4 h), the “LPS-induced ERK1/2 phosphorylation after 4 h” value is “this effect disappeared”. In [9] (aerosol dapsone 0.5 mg/ml, 15 min once daily, P=0.007 vs LPS control, normal approximately 7 mm/min), the MCT velocity came to 6 mm/min. Also, the MCT result in [9] (oral dapsone 2 mg/kg daily, P=0.09, LPS alone 1-3 mm/minute) is given as “the increase was not significant”. The “patients able to substantially reduce or stop taking steroids” value in data set [10] is 9 out of 10. Besides, the “basolateral IL-8 increased by AP- or BL-LPS” value in data set [11] (P<0.001 AP-LPS, P<0.01 BL-LPS) is listed as “inhibited”. The “apical IL-8 level increased by AP-LPS” value in [11] (P<0.05) was “inhibited”. Besides, the “basal IL-8 level” value with IL-8 release from NHEK (NHEK) is given as “did not depress”. For the same molecule, the “bullous pemphigoid IgG-mediated IL-8 release” value with IL-8 release from NHEK (dapsone in a therapeutic concentration) was “inhibited”.
